Data: ChEMBL document CHEMBL1201862, “PubChem BioAssay data set” (2004)
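How tested: cells in 96-well plates exposed to compound for 48 hours at five concentrations. GI50 marks 50% less growth.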 Calls of active or inactive are those of the source. Cut-off read from the data, not from the text of the source: active = GI50 up to about 1.1 µM and inactive = higher.

Key:
Experiment in all cases: NCI anticancer screen, dose series, 48 h
SF-295 = tested on: SF-295
U-251 = tested on: U-251
A549 = tested on: A549
KM12 = tested on: KM12
M14 = tested on: M14
SR = tested on: SR
MCF7 = tested on: MCF7
COLO 205 = tested on: COLO 205
SK-MEL-5 = tested on: SK-MEL-5
Malme-3M = tested on: Malme-3M
786-0 = tested on: 786-0
TK-10 = tested on: TK-10
BT-549 = tested on: BT-549
HCT-15 = tested on: HCT-15
HCT-116 = tested on: HCT-116
UACC-257 = tested on: UACC-257
HL-60 = tested on: HL-60
MDA-MB-435 = tested on: MDA-MB-435
SNB-75 = tested on: SNB-75

Measured: GI50

COC(=O)c1c(C)[n+]([O-])c2cc(Cl)c(Cl)cc2[n+]1[O-]
9.59 µM: HCT-15
inactive: SF-295 19.6 µM | U-251 16.5 µM | A549 8.07 µM | KM12 11.2 µM | M14 24.5 µM | SR 6.17 µM | MCF7 14.5 µM | COLO 205 12.2 µM | SK-MEL-5 8.71 µM | Malme-3M 8.45 µM | 786-0 27.2 µM | TK-10 11.3 µM | BT-549 22.6 µM | HCT-116 15.5 µM | UACC-257 17.1 µM | HL-60 17.7 µM | MDA-MB-435 18.6 µM

Cc1cc(O)cc2c1c(=O)c1ccccc1n2C
> 100 µM: HCT-15
inactive: SF-295 52.2 µM | U-251 54.1 µM | A549 > 100 µM | KM12 > 100 µM | M14 > 100 µM | SR 48.5 µM | SNB-75 87.5 µM | MCF7 > 100 µM | COLO 205 > 100 µM | SK-MEL-5 62.5 µM | 786-0 44.4 µM | TK-10 46.9 µM | BT-549 50.6 µM | HCT-116 54.7 µM | UACC-257 > 100 µM | HL-60 66.8 µM | MDA-MB-435 > 100 µM

O=C(Nc1ccccc1)Nn1c(-c2cccs2)nc2ccc(I)cc2c1=O
inactive: SF-295 42.6 µM | U-251 23.9 µM | A549 19.2 µM | KM12 31.3 µM | M14 35.9 µM | SR 16.8 µM | SNB-75 2.74 µM | MCF7 29.1 µM | COLO 205 21.4 µM | SK-MEL-5 17.1 µM | 786-0 61.7 µM | TK-10 28.4 µM | BT-549 10.5 µM | HCT-116 31.4 µM | UACC-257 17.2 µM | HL-60 1.41 µM | MDA-MB-435 20.1 µM
31.5 µM: HCT-15

COC(=O)/C=C1/OC(c2ccc(C)cc2C)=CC1=O
inactive: U-251 17.4 µM | KM12 17.6 µM | M14 15.6 µM | SR 3.4 µM | SNB-75 12.9 µM | MCF7 8.26 µM | COLO 205 16.6 µM | SK-MEL-5 16.4 µM | Malme-3M 16.4 µM | 786-0 11 µM | TK-10 17.5 µM | BT-549 16.3 µM | HCT-116 11.5 µM | HL-60 2.74 µM | MDA-MB-435 15.7 µM
13.9 µM: HCT-15

COC(=O)CSC(=S)Nc1nnc(NC(=S)SCOC(C)=O)n1C(=S)SCC(=O)OC
inactive: SF-295 > 100 µM | U-251 > 100 µM | KM12 > 100 µM | M14 > 100 µM | SR > 100 µM | MCF7 > 100 µM | COLO 205 > 100 µM | SK-MEL-5 > 100 µM | 786-0 > 100 µM | BT-549 > 100 µM | HCT-116 > 100 µM | UACC-257 > 100 µM | HL-60 > 100 µM | MDA-MB-435 > 100 µM
> 100 µM: HCT-15

CC(=O)N1N=C(c2ccccc2Nc2ccccc2C2=NN(C(C)=O)C(c3ccccc3)O2)OC1c1ccccc1 (stereo not given)
inactive: SF-295 32.8 µM | U-251 63.5 µM | A549 17.4 µM | M14 56.1 µM | SR > 100 µM | MCF7 11.5 µM | COLO 205 18.6 µM | SK-MEL-5 51.2 µM | Malme-3M > 100 µM | 786-0 > 100 µM | TK-10 > 100 µM | BT-549 87.5 µM | HCT-116 32.5 µM | MDA-MB-435 14.7 µM
44.8 µM: HCT-15

CCOC(=O)c1cc2nc3ccccc3c(=O)n2c2ccccc12
inactive: SF-295 > 10 µM | U-251 > 10 µM | A549 > 10 µM | KM12 > 10 µM | M14 > 10 µM | SNB-75 6.32 µM | MCF7 > 10 µM | COLO 205 > 10 µM | SK-MEL-5 > 10 µM | Malme-3M > 10 µM | 786-0 > 10 µM | TK-10 > 10 µM | BT-549 > 10 µM | HCT-116 > 10 µM | UACC-257 > 10 µM | HL-60 > 10 µM | MDA-MB-435 > 10 µM
> 10 µM: HCT-15

NC(CCC(=O)O)(CCC(=O)O)CCC(=O)O
inactive: SF-295 > 100 µM | U-251 > 100 µM | A549 > 100 µM | KM12 > 100 µM | M14 > 100 µM | SR > 100 µM | SNB-75 > 100 µM | MCF7 > 100 µM | COLO 205 > 100 µM | SK-MEL-5 > 100 µM | Malme-3M > 100 µM | 786-0 > 100 µM | TK-10 > 100 µM | BT-549 > 100 µM | HCT-116 > 100 µM | UACC-257 > 100 µM | MDA-MB-435 > 100 µM
> 100 µM: HCT-15

O=C(Nc1ccccc1)Oc1ccc(C(=S)Nc2ccc(Br)cc2)cc1
16.2 µM: HCT-15
inactive: SF-295 20.6 µM | U-251 19.5 µM | KM12 12.8 µM | SR 13.4 µM | MCF7 19.1 µM | COLO 205 17.2 µM | SK-MEL-5 16 µM | Malme-3M 19.2 µM | 786-0 19.4 µM | BT-549 12.8 µM | HCT-116 17.3 µM | UACC-257 20.5 µM | HL-60 8.13 µM | MDA-MB-435 16.9 µM

CN(C)c1ccc(/C=N\NC(=O)c2ccccc2Nc2ccccc2C(=O)N/N=C/c2ccc(N(C)C)cc2)cc1
inactive: SF-295 > 100 µM | U-251 > 100 µM | A549 > 100 µM | KM12 > 100 µM | M14 31.7 µM | SR > 100 µM | SNB-75 > 100 µM | MCF7 > 100 µM | COLO 205 97.5 µM | SK-MEL-5 57 µM | Malme-3M 38.5 µM | 786-0 > 100 µM | TK-10 > 100 µM | BT-549 > 100 µM | HCT-116 > 100 µM | UACC-257 > 100 µM | MDA-MB-435 > 100 µM
> 100 µM: HCT-15

COc1ccc(CNc2ccn(C3OC(CO)C(O)C3O)c(=O)n2)cc1 (stereo not given)
inactive: SF-295 > 100 µM | U-251 > 100 µM | A549 > 100 µM | KM12 45.9 µM | M14 50.5 µM | SR > 100 µM | MCF7 72.9 µM | COLO 205 > 100 µM | SK-MEL-5 62.5 µM | Malme-3M > 100 µM | 786-0 > 100 µM | TK-10 > 100 µM | BT-549 62.5 µM | HCT-116 55.5 µM | UACC-257 49.8 µM | HL-60 27.2 µM | MDA-MB-435 44.8 µM
> 100 µM: HCT-15

COc1ccc(N2C(=O)C3c4[nH]c5cc(Cl)ccc5c4C4CCC(C(C)(C)C)CC4C3C2=O)cc1 (stereo not given)
87.5 µM: HCT-15
inactive: SF-295 > 100 µM | U-251 95.1 µM | A549 60.7 µM | KM12 65.8 µM | M14 > 100 µM | SR 12.6 µM | SNB-75 > 100 µM | MCF7 33.7 µM | COLO 205 > 100 µM | SK-MEL-5 > 100 µM | 786-0 > 100 µM | TK-10 > 100 µM | BT-549 > 100 µM | HCT-116 55.6 µM | UACC-257 > 100 µM | HL-60 26.9 µM | MDA-MB-435 > 100 µM

C#CCOC(=O)c1ccc(OC(C)=O)cc1
inactive: SF-295 > 100 µM | U-251 > 100 µM | KM12 > 100 µM | M14 > 100 µM | SR > 100 µM | SNB-75 > 100 µM | MCF7 > 100 µM | COLO 205 > 100 µM | SK-MEL-5 > 100 µM | 786-0 > 100 µM | TK-10 > 100 µM | BT-549 > 100 µM | HCT-116 > 100 µM | UACC-257 > 100 µM | MDA-MB-435 > 100 µM
> 100 µM: HCT-15

COc1ccccc1N1CCN(CCCCNC(=O)c2ccc([N+](=O)[O-])o2)CC1
3.48 µM: HCT-15
inactive: SF-295 11.6 µM | U-251 7.55 µM | A549 6.98 µM | KM12 5.53 µM | M14 4.05 µM | SR 5.61 µM | MCF7 4.75 µM | COLO 205 2.38 µM | SK-MEL-5 6.75 µM | Malme-3M 2.81 µM | 786-0 6.82 µM | TK-10 5.9 µM | BT-549 4.19 µM | HCT-116 10.3 µM | UACC-257 4.1 µM | HL-60 5.86 µM | MDA-MB-435 3.36 µM

Oc1ccc2c(c1)-c1c(c3cc(O)ccc3n1CCN1CCOCC1)CC2
19.2 µM: HCT-15
inactive: SF-295 20.1 µM | U-251 19.7 µM | A549 28.4 µM | KM12 32.7 µM | M14 19.5 µM | SR 18.4 µM | SNB-75 19.5 µM | MCF7 18.7 µM | COLO 205 17.4 µM | SK-MEL-5 16.6 µM | 786-0 21.9 µM | TK-10 41.1 µM | BT-549 14.5 µM | HCT-116 19.1 µM | UACC-257 36.6 µM | HL-60 23.2 µM | MDA-MB-435 17.8 µM

C#CCN(Cc1ccc2[nH]c(N)nc(=O)c2c1)c1ccc(C(=O)NC(CCC(=O)O)C(=O)O)cc1 (stereo not given)
> 100 µM: HCT-15
inactive: SF-295 34 µM | U-251 50.9 µM | A549 53.5 µM | KM12 > 100 µM | M14 51.3 µM | SR > 100 µM | MCF7 5.13 µM | COLO 205 12 µM | SK-MEL-5 > 100 µM | Malme-3M 47.5 µM | 786-0 6.38 µM | TK-10 10.8 µM | BT-549 8.11 µM | HCT-116 > 100 µM | UACC-257 > 100 µM | HL-60 > 100 µM | MDA-MB-435 > 100 µM
